Test results from ChEMBL document CHEMBL1127273, “Novel cholecystokinin receptor ligands: Oxopiperazines derived from Boc-CCK-4” (Bioorg Med Chem Lett, 1994).
Residues, ends and D or L forms follow the SMILES beside them. *: point of attachment. NHPhenethyl = c1ccc(CCN*)cc1; Boc = CC(C)(C)OC(=O)*

How the values were obtained:
[1] = biological target: T1, Gastrin/cholecystokinin type B receptor (Mus musculus, UniProt P56481); test: Concentration producing half-maximal inhibition of specific binding of [125I]- CCK-8 to CCK receptors mouse forebrain membranes (CCK-B); format: tissue-based, Brain
T1 sequence (P56481 whole entry): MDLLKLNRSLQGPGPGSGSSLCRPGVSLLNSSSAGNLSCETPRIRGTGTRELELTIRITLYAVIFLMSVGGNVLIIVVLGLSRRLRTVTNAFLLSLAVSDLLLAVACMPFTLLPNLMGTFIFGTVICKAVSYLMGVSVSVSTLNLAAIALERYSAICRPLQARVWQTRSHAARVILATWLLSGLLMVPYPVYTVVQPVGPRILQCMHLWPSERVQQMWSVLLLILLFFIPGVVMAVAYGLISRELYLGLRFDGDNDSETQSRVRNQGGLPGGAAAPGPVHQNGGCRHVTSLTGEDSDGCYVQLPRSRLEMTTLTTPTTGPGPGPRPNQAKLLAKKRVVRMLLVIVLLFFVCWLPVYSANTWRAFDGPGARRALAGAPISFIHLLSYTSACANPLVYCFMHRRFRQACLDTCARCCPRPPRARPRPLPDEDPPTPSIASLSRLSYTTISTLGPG

[2] = biological target: Cholecystokinin receptor (Mus musculus) (UniProt O08786+P56481); test: Ratio of CCK-A receptor to CCK-B receptor was determined; format: protein assay
[3] = biological target: T2, Cholecystokinin receptor type A (Mus musculus, UniProt O08786); test: Concentration producing half-maximal inhibition of specific binding of [125I]- CCK-8 to CCK receptors on mouse pancreatic membranes (CCK-A)
T2 sequence (O08786 whole entry): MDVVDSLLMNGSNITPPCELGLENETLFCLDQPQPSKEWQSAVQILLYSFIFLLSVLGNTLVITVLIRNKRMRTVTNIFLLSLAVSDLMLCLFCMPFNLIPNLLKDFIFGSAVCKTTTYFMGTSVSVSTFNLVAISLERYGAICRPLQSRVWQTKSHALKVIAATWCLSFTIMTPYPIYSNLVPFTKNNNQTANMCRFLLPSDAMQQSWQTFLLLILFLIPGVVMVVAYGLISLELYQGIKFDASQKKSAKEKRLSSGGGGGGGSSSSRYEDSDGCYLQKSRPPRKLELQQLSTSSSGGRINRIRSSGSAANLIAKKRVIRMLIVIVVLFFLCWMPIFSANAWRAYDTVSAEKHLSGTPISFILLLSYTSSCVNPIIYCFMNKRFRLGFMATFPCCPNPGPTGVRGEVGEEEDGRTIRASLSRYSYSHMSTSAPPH

SMILES	IC50 [1] [µM]	Ratio [2]	IC50 [3] [µM]
CC(C)C[C@H](NC(=O)[C@H](Cc1c[nH]c2ccccc12)NC(=O)OC(C)(C)C)C(=O)N1C[C@H](Cc2ccccc2)NC(=O)[C@@H]1CC(=O)O	61	0.014	0.84
CCOC(=O)N[C@@H](Cc1c[nH]c2ccccc12)C(=O)N[C@@H](CC(C)C)C(=O)N1CC(=O)N[C@@H](Cc2ccccc2)C1	38	0.011	0.43
CC(C)C[C@H](NC(=O)[C@H](Cc1c[nH]c2ccccc12)NC(=O)OC(C)(C)C)C(=O)N1C[C@H](CCc2ccccc2)NC(=O)[C@@H]1CC(=O)O	8.2	0.077	0.63
CC(C)C[C@H](NC(=O)[C@H](Cc1c[nH]c2ccccc12)NC(=O)OC(C)(C)C)C(=O)N1C[C@H](c2ccccc2)NC(=O)[C@@H]1CC(=O)O	9.4	1	9.4
CC(C)C[C@H](NC(=O)[C@H](Cc1c[nH]c2ccccc12)NC(=O)/C=C/c1ccccc1)C(=O)N1CC(=O)N[C@@H](Cc2ccccc2)C1	> 100	–	0.52
CC(C)C[C@H](NC(=O)[C@H](Cc1c[nH]c2ccccc12)NC(=O)OC(C)(C)C)C(=O)N1CC(=O)N[C@H](Cc2ccccc2)C1	39	0.0012	0.046
CC(C)C[C@H](NC(=O)C(NC(=O)OC(C)(C)C)c1ccccc1)C(=O)N1CC(=O)N[C@@H](Cc2ccccc2)C1 (stereo not given in full)	10	2.4	24
CCCC[C@H](NC(=O)c1c[nH]c2ccccc12)C(=O)N1C[C@H](Cc2ccccc2)NC(=O)[C@@H]1CC(=O)O	> 100	–	1.4
CC(C)C[C@H](NC(=O)[C@H](Cc1c[nH]c2ccccc12)NC(=O)OC(C)(C)C)C(=O)N[C@@H](CC(=O)O)C(=O)NCCc1ccccc1 (Boc-Trp-Leu-Asp-NHPhenethyl)	–	10	–
CC(C)C[C@H](NC(=O)[C@H](Cc1c[nH]c2ccccc12)NC(=O)OCc1ccccc1)C(=O)N1CC(=O)N[C@H](Cc2ccccc2)C1	15	0.0009	0.014
CCCC[C@H](NC(=O)Cc1c[nH]c2ccccc12)C(=O)N1C[C@H](Cc2ccccc2)NC(=O)[C@@H]1CC(=O)O	1.2	6	7.2
CC(C)C[C@H](NC(=O)Cc1c[nH]c2ccccc12)C(=O)N1C[C@H](Cc2ccccc2)NC(=O)[C@@H]1CC(=O)O	2.5	5.2	13
CC(C)C[C@H](NC(=O)[C@@H](Cc1c[nH]c2ccccc12)NC(=O)OC(C)(C)C)C(=O)N1CC(=O)N[C@@H](Cc2ccccc2)C1	> 100	–	5.5
CC(C)C[C@H](NC(=O)[C@H](Cc1c[nH]c2ccccc12)NC(=O)OC(C)(C)C)C(=O)N1C[C@@H](Cc2ccccc2)NC(=O)[C@@H]1CC(=O)O	17	0.21	3.6
CC(C)C[C@H](NC(=O)[C@H](Cc1c[nH]c2ccccc12)NC(=O)OC(C)(C)C)C(=O)N1CC(=O)N[C@@H](Cc2ccccc2)C1	37	0.0073	0.27
CC(C)C[C@H](NC(=O)[C@H](Cc1c[nH]c2ccccc12)NC(=O)OC(C)(C)C)C(=O)N1C[C@H](Cc2ccccc2)NC(=O)[C@H]1CC(=O)O (mixture of isomers)	7.4	0.38	2.8
CC(C)C[C@H](NC(=O)[C@H](Cc1c[nH]c2ccccc12)NC(=O)OCc1ccccc1)C(=O)N1CC(=O)N[C@@H](Cc2ccccc2)C1	18	0.0036	0.064
CC(C)C[C@H](NC(=O)[C@@H](N)Cc1c[nH]c2ccccc12)C(=O)N1C[C@H](Cc2ccccc2)NC(=O)[C@@H]1CC(=O)O	15	3.4	51
CC(C)C[C@H](NC(=O)CCc1c[nH]c2ccccc12)C(=O)N1C[C@H](Cc2ccccc2)NC(=O)[C@@H]1CC(=O)O	8.9	6.3	56
CC(C)C[C@H](NC(=O)[C@H](Cc1c[nH]c2ccccc12)NC(=O)OC(C)(C)C)C(=O)N1C[C@@H](Cc2ccccc2)NC(=O)[C@H]1CC(=O)O	70	0.09	6.3
